Results reported in patent publication US11279733B2, “Peptide antibiotics” (priority 2017, dated 2022).
Converted amounts (≈) assume the structure as drawn. Where two headings read alike, the source gives them in different places. Starred links: 1 amine or outer side, 2 acyl side, 3 side chain; linkers in the order of their positions; H or OH if unused. Positions of bridges follow the written chain, without caps; N, C: chain ends. Non-standard residues stand in square brackets, D forms with d. Residues, ends and D or L forms follow the SMILES beside them. *: point of attachment. Decanoyl(3R-OH) = CCCCCCC[C@@H](O)CC(=O)*; azaDab = NCCN(N[*:1])C(=O)[*:2]; dDab = NCC[C@@H](N)C(=O)O; Dab = NCC[C@H](N)C(=O)O

Tests used:
[1] = tested on: A. baumannii ATCC 19606; conditions: ATCC 19606
How it was run: (§1)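 Mid-log cultures grown in Mueller Hinton broth at 37° C were tested by 2-fold broth microdilution at 5×10^5 CFU/mL final. Compounds were dissolved in water and tested over a final range of 32 to 0.015 μg/mL.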

[2] = tested on: A. baumannii GN_093 PmxR; conditions: GN 093 PmxR
How it was run: as §1

[3] = tested on: E. coli ATCC 25922; conditions: ATCC 25922
How it was run: as §1

[4] = tested on: K. pneumoniae ATCC 13883; conditions: ATCC 13883
How it was run: as §1

[5] = tested on: K. pneumoniae ATCC 700603, MDR; conditions: ATCC 700603
How it was run: as §1

[6] = tested on: K. pneumoniae ATCC BAA-2146, NDM-1 pos; conditions: ATCC BAA-2146
How it was run: as §1

[7] = tested on: K. pneumoniae GN_102 PmxR; conditions: GN 102 PmxR
How it was run: as §1

[8] = tested on: K. pneumoniae GN_106, PmxR; conditions: GN 106, PmxR
How it was run: as §1

[9] = tested on: P. aeruginosa ATCC 27853; conditions: ATCC 27853
How it was run: as §1

[10] = tested on: P. aeruginosa GN_043, PmxR
How it was run: as §1

[11] = tested on: P. aeruginosa GN_105, PmxR; conditions: GN 105, PmxR
How it was run: as §1

[12] = tested on: S. aureus ATCC 25923, MSSA; conditions: ATCC 25923
How it was run: as §1

[13] = tested on: Neisseria gonorrhoeae; test: MIC determination, Neisseria gonorrhoeae; assay type: cell-based; conditions: strain FA19 ATCC BAA-1838
How it was run: as §1

[14] = In vitro nephrotoxicity, LDH release from primary human kidney cells; assay type: cell-based; conditions: pH 7.4
Description: (§2) hPT cells were derived from whole human kidneys procured by the International Institute for the Advancement of Medicine (Edison, N.J., USA). All tissue was scored by a pathologist as normal (i.e., derived from non-cancerous, non-diseased tissue). Cell isolation procedures were based on those originally described by Todd et al. (1996) and modified (Cummings and Lash, 2000; Cummings et al., 2000) with use of sterile conditions (i.e., all instruments and glassware were autoclaved and all buffers were filtered through a 0.2-μm pore-size filter). Renal cortex and outer stripe were cut into slices, washed with sterile PBS, minced, and the pieces were placed in a trypsinization flask filled with 300 ml of sterile, filtered Hanks' buffer, containing 25 mM NaHCO3, 25 mM HEPES, pH 7.4, 0.5 mM EGTA, 0.2% (w/v) bovine serum albumin, 50 μg/ml gentamicin, 1.3 mg/mL collagenase, and 0.59 mg/ml CaCl2), which was filtered prior to use. Whole kidneys were perfused with Wisconsin medium and kept on ice until they arrived at the laboratory, which was usually within 24 h of removal from the donor.
(§3) All buffers were continuously bubbled with 95% O2/5% CO2 and were maintained at 37° C. Minced cortical pieces from whole kidneys were subjected to collagenase digestion for 60 min, after which the supernatant was filtered through a 70-μm mesh filter to remove tissue fragments, centrifuged at 150×g for 7 min, and the pellet resuspended in Dulbecco's Modified Eagle's Medium: Ham's F12 Medium (DMEM/F12; 1/1). Approximately 5 to 7×10^6 cells were obtained per 1 g of human kidney cortical tissue.
(§4) hPT cells were resuspended in 2 mL of DMEM/F12 and diluted to 500 mL with cell culture medium, which was serum-free and hormonally-defined. Composition of this supplemented medium was based on earlier work establishing optimal conditions for primary culture of rat PT cells (Lash et al., 1995). Basal medium was a 1:1 mixture of DMEM/F12. […] Cells were seeded in a volume of 0.5 ml at a density of 50-100 μg protein per cm^2 (0.5-1.0×10^6 cells/ml) on 24-well plates. Cultures were grown at 37° C. in a humidified incubator under an atmosphere of 95% air/5% CO2 at pH 7.4. Cultures were grown to approximately 80%-90% confluence (generally 5-6 days) prior to experiments. Cells were harvested by either scraping the flasks with a Teflon scraper or by brief incubation with Cellstripper (Cellgro, Herndon, Va., USA) (in Ca^2+- and Mg^2+-free Hanks' buffer).

[15] = In vitro nephrotoxicity, GGT release from primary human kidney cells; assay type: cell-based; conditions: pH 7.4
Description: as §2, §3, §4
Release of gamm-glutanyltransferase was assessed according to Orlowski, M., Meister, A. 1963. γ-Glutamyl-p-nitroanilide: A new convenient substrate for determination and study of L- and D-γ-glutamyltranspeptidase activities (Biochim. Biophys. Acta 73: 679-681.)
A 2.5 mM substrate Solution was prepared from 67 mg γ-glutamyl-p-nitroanilide+264 mg glycylglycine in 100 mL of 0.05 M Tris, pH 8.2 (50 mM Tris, pH 8.2: 605 mg Tris/HCl per 100 mL).
For the assay in 96-well plates, 6-μL of sample and 0.3 mL substrate solution were added to each well. The absorbance was measured at 410 nm for the appearance of product, p-nitroanilide (molar extinction=8800 M^−1 cm^−1).

Structure (SMILES)	MIC, A. baumannii ATCC 19606 [1]	MIC, A. baumannii Cl Ptyela 10073 4512:2, PmxR [2]	MIC, E. coli ATCC 25922 [3]	MIC, K. pneumoniae ATCC 13883 [4]	MIC, K. pneumoniae ATCC 700603, MDR [5]	MIC, K. pneumoniae ATCC BAA-2146, NDM-1 pos [6]	MIC, K. pneumoniae Cl Koprana 10065 0661:1, PmxR [7]	MIC, K. pneumoniae Cl 138-16347-20362, PmxR [8]	MIC, P. aeruginosa ATCC 27853 [9]	MIC, P. aeruginosa FADDI-PA070, PmxR ([10]; Table 5, polymyxin-resistant)	MIC, P. aeruginosa PA9704, PmxR [11]	MIC, S. Aureus ATCC 25923, MSSA [12]	MIC N. gonorrhoeae FA19 ATCC BAA-1838 [13]	CC50 [14]	CC50 [15]	also measured
CCCCCCC[C@@H](O)CC(=O)N[C@H](CCN)C(=O)N[C@H]1CCNC(=O)[C@H](CC(C)C)NC(=O)[C@H](CCN)NC(=O)[C@H](CCCNC(=N)N)NC(=O)[C@H](CC(C)C)NC(=O)[C@@H](Cc2ccccc2)NC(=O)[C@H](CCN)NC1=O [compound 8733, 3(R)OH-nC9CO-D-Dab-cyc[L-Dab-L-DAB-D-Phe-L-Leu-L-Arg-L-Dab-L-Leu]] ({Decanoyl(3R-OH)}-[dDab][Dab][Dab][dF]LR[Dab]L; lactam 2-C)	4 µg/mL (≈ 3.63 µM)	8 µg/mL (≈ 7.27 µM)	2 µg/mL (≈ 1.82 µM)	2 µg/mL (≈ 1.82 µM)	2 µg/mL (≈ 1.82 µM)	4 µg/mL (≈ 3.63 µM)	2 µg/mL (≈ 1.82 µM)	2 µg/mL (≈ 1.82 µM)	2 µg/mL (≈ 1.82 µM)	2 µg/mL (≈ 1.82 µM)	2 µg/mL (≈ 1.82 µM)	8 µg/mL (≈ 7.27 µM)	0.78 µg/mL (≈ 0.709 µM)	> 128 µg/mL	> 128 µg/mL	–
CCCCCCC[C@@H](O)CC(=O)NN(CCN)C(=O)N[C@H]1CCNC(=O)[C@H](CC(C)C)NC(=O)[C@H](CCN)NC(=O)[C@H](CCN)NC(=O)[C@H](CC(C)C)NC(=O)[C@@H](Cc2ccccc2)NC(=O)[C@H](CCN)NC1=O [compound 8639, 3(R)OH-nC9CO-azaDab-cyc[L-Dab-L-DAB-D-Phe-L-Leu-L-Dab-L-Dab-L-Leu]] ({Decanoyl(3R-OH)}-[azaDab][Dab][Dab][dF]L[Dab][Dab]L; lactam 2-C)	–	–	–	–	–	–	–	–	–	–	–	–	0.78 µg/mL (≈ 0.746 µM)	> 128 µg/mL	> 128 µg/mL	MIC A. baumannii ATCC 19606 [1]: 4 µg/mL (≈ 3.83 µM); MIC A. baumannii Cl Ptyela 10073 4512:2, PmxR [2]: 8 µg/mL (≈ 7.65 µM); MIC E. coli ATCC 25922 [3]: 2 µg/mL (≈ 1.91 µM); MIC K. pneumoniae ATCC 13883 [4]: 4 µg/mL (≈ 3.83 µM); MIC K. pneumoniae ATCC 700603, MDR [5]: 2 µg/mL (≈ 1.91 µM); MIC K. pneumoniae ATCC BAA-2146, NDM-1 pos [6]: 4 µg/mL (≈ 3.83 µM); MIC K. pneumoniae Cl Koprana 10065 0661:1 PmxR [7]: 2 µg/mL (≈ 1.91 µM); MIC K. pneumoniae Cl 183-16357-20352, PmxR [8]: 2 µg/mL (≈ 1.91 µM); MIC P. aeruginosa ATCC 27853 [9]: 2 µg/mL (≈ 1.91 µM); MIC, P. aeruginosa FADDI-PA070, PmxR ([10]; strain name as in Table 11): 2 µg/mL (≈ 1.91 µM); MIC P. aeruginosa PA9704, PmxR [11]: 2 µg/mL (≈ 1.91 µM); MIC S. aureus ATCC 25923, MSSA [12]: 8 µg/mL (≈ 7.65 µM)
CCCCCCC[C@@H](O)CC(=O)N[C@H](CCN)C(=O)N[C@H]1CCNC(=O)[C@H](CC(C)C)NC(=O)[C@H](CCN)NC(=O)[C@H](CCCCN)NC(=O)[C@H](CC(C)C)NC(=O)[C@@H](Cc2ccccc2)NC(=O)[C@H](CCN)NC1=O [compound 992, 3(R)OH-nC9CO-D-Dab-cyc[L-Dab-L-Dab-D-Phe-L-Leu-L-Lys-L-Dab-L-Leu]] ({Decanoyl(3R-OH)}-[dDab][Dab][Dab][dF]LK[Dab]L; lactam 2-C)	2 µg/mL (≈ 1.86 µM)	8 µg/mL (≈ 7.46 µM)	2 µg/mL (≈ 1.86 µM)	2 µg/mL (≈ 1.86 µM)	2 µg/mL (≈ 1.86 µM)	2 µg/mL (≈ 1.86 µM)	4 µg/mL (≈ 3.73 µM)	4 µg/mL (≈ 3.73 µM)	2 µg/mL (≈ 1.86 µM)	2 µg/mL (≈ 1.86 µM)	4 µg/mL (≈ 3.73 µM)	16 µg/mL (≈ 14.9 µM)	–	114 µg/mL (≈ 106 µM)	> 128 µg/mL	–
